In brackets after ≈: the same amount, converted by molar mass.
Tests used:
Type in all cases: functional
Klebsiella pneumoniae [1] = test: Antibacterial activity against NDM-1 (+) Klebsiella pneumoniae 09-20 assessed as inhibition of bacterial growth incubated for 18 hrs by agar dilution method
Klebsiella pneumoniae [2] = test: Antibacterial activity against NDM-1 (+) Klebsiella pneumoniae 2146 assessed as inhibition of bacterial growth incubated for 18 hrs by agar dilution method
Escherichia coli [3] = test: Antibacterial activity against ESBLs (-) Escherichia coli ATCC 25922 assessed as inhibition of bacterial growth incubated for 18 hrs by agar dilution method
Escherichia coli [4] = test: Antibacterial activity against NDM-1 (+) Escherichia coli CDC 1001728 assessed as inhibition of bacterial growth incubated for 18 hrs by agar dilution method
Escherichia coli [5] = test: Antibacterial activity against mcr-1 (+) Escherichia coli 08-85 assessed as inhibition of bacterial growth incubated for 18 hrs by agar dilution method
Pseudomonas aeruginosa [6] = test: Synergistic antibacterial activity against Pseudomonas aeruginosa PAO1 assessed as aztreonam MIC upto […] ug/ml incubated for 18 hrs by checkerboard method (reference value: 8 microg/ml)
Pseudomonas aeruginosa [7] = test: Antibacterial activity against BL (+) Pseudomonas aeruginosa ATCC 27853 assessed as inhibition of bacterial growth incubated for 18 hrs by agar dilution method
Escherichia coli [8] = test: Antibacterial activity against ESBLs (+) Escherichia coli 16-1 assessed as inhibition of bacterial growth incubated for 18 hrs by agar dilution method
Klebsiella pneumoniae [9] = test: Antibacterial activity against ESBLs (+) Klebsiella pneumoniae ATCC 700603 assessed as inhibition of bacterial growth incubated for 18 hrs by agar dilution method
Klebsiella pneumoniae [10] = test: Antibacterial activity against ESBLs (+) Klebsiella pneumoniae 16-14 assessed as inhibition of bacterial growth incubated for 18 hrs by agar dilution method
Pseudomonas aeruginosa [11] = test: Antibacterial activity against Pseudomonas aeruginosa PAO1 assessed as inhibition of bacterial growth incubated for 18 hrs by agar dilution method

| MIC (Klebsiella pneumoniae [1]) | MIC (Klebsiella pneumoniae [2]) | MIC (Escherichia coli [3]) | MIC (Escherichia coli [4]) | MIC (Escherichia coli [5]) | MIC (Pseudomonas aeruginosa [6]) | MIC (Pseudomonas aeruginosa [7]) | MIC (Escherichia coli [8]) | MIC (Klebsiella pneumoniae [9]) | MIC (Klebsiella pneumoniae [10]) | MIC (Pseudomonas aeruginosa [11]) | Structure (SMILES) |
| --- | --- | --- | --- | --- | --- | --- | --- | --- | --- | --- | --- |
|  |  |  |  |  | 8 µg/mL |  |  |  |  |  | COC(=O)[C@H](Cc1ccccc1)NC(=O)[C@H](CCCN)NC(=O)c1ccc2ccccc2c1 |
|  |  |  |  |  | 8 µg/mL |  |  |  |  |  | NCCC[C@H](NC(=O)CCc1ccc(Cl)cc1)C(=O)Nc1ccc2ccccc2c1 |
| 1 µg/mL (≈ 2.22 µM) | 8 µg/mL (≈ 17.7 µM) | 1 µg/mL (≈ 2.22 µM) |  | 1 µg/mL (≈ 2.22 µM) |  | 64 µg/mL (≈ 142 µM) | 0.5 µg/mL (≈ 1.11 µM) | 4 µg/mL (≈ 8.86 µM) | 0.5 µg/mL (≈ 1.11 µM) | 64 µg/mL (≈ 142 µM) | C[C@@H](O/N=C(\C(=O)N[C@@H]1C(=O)N(OS(=O)(=O)O)C1(C)C)c1csc(N)n1)C(=O)O |
|  |  |  |  |  | 8 µg/mL |  |  |  |  |  | NCCC[C@H](NC(=O)c1ccc2ccccc2c1)C(=O)N[C@@H](Cc1ccccc1)C(N)=O |
| 0.25 µg/mL (≈ 0.521 µM) | 1 µg/mL (≈ 2.09 µM) | 0.25 µg/mL (≈ 0.521 µM) | 0.5 µg/mL (≈ 1.04 µM) | 0.25 µg/mL (≈ 0.521 µM) |  | 8 µg/mL (≈ 16.7 µM) | 0.125 µg/mL (≈ 0.261 µM) | 2 µg/mL (≈ 4.17 µM) | 0.125 µg/mL (≈ 0.261 µM) | 4 µg/mL (≈ 8.34 µM) | CC(C)[C@H](O/N=C(\C(=O)N[C@@H]1C(=O)N(OS(=O)(=O)O)C1(C)C)c1csc(N)n1)C(=O)O |
|  |  |  |  |  | 2 µg/mL |  |  |  |  |  | NCCC[C@H](NC(=O)CCc1cc(F)cc(F)c1)C(=O)Nc1ccc2ccccc2c1 |
|  |  |  |  |  | 8 µg/mL |  |  |  |  |  | NCCC[C@H](NC(=O)c1ccc2ccccc2c1)C(=O)N[C@@H](CCc1ccccc1)C(=O)O |
| > 64 µg/mL | > 64 µg/mL | 8 µg/mL (≈ 20.6 µM) | 32 µg/mL (≈ 82.4 µM) | > 64 µg/mL |  | 64 µg/mL (≈ 165 µM) | 16 µg/mL (≈ 41.2 µM) | > 64 µg/mL | > 64 µg/mL | 16 µg/mL (≈ 41.2 µM) | C#CCO/N=C(\C(=O)N[C@@H]1C(=O)N(S(=O)(=O)O)[C@H]1C)c1nsc(N)n1 |
|  |  |  |  |  | 8 µg/mL |  |  |  |  |  | NCCC[C@H](NC(=O)CCc1ccc(C(F)(F)F)cc1)C(=O)Nc1ccc2ccccc2c1 |
| > 64 µg/mL | > 64 µg/mL | 4 µg/mL (≈ 7.71 µM) | 16 µg/mL (≈ 30.9 µM) | > 64 µg/mL |  | > 64 µg/mL | 16 µg/mL (≈ 30.9 µM) | > 64 µg/mL | > 64 µg/mL | > 64 µg/mL | C[C@H]1[C@H](NC(=O)/C(=N\OCC(=O)N2CCC(C(=O)O)CC2)c2csc(N)n2)C(=O)N1S(=O)(=O)O |
| 64 µg/mL (≈ 163 µM) | 32 µg/mL (≈ 81.3 µM) | 32 µg/mL (≈ 81.3 µM) | 16 µg/mL (≈ 40.7 µM) | > 64 µg/mL |  | > 64 µg/mL | 16 µg/mL (≈ 40.7 µM) | 32 µg/mL (≈ 81.3 µM) | > 64 µg/mL | > 64 µg/mL | C[C@H]1[C@H](NC(=O)/C(=N\OCCN)c2nsc(N)n2)C(=O)N1S(=O)(=O)O |
|  |  |  |  |  | 8 µg/mL |  |  |  |  |  | NCCC[C@H](NCc1ccc2ccccc2c1)C(=O)N[C@@H](CCc1ccccc1)C(=O)O |
|  |  |  |  |  | 2 µg/mL |  |  |  |  |  | NCCC[C@H](NC(=O)CCc1ccccc1)C(=O)Nc1ccc2ccccc2c1 |
|  |  |  |  |  | 8 µg/mL |  |  |  |  |  | CCOC(=O)[C@H](CCc1ccccc1)NC(=O)[C@H](CCCN)NC(=O)c1ccc2ccccc2c1 |

| Structure (SMILES) | MIC (Klebsiella pneumoniae [1]) | MIC (Klebsiella pneumoniae [2]) | MIC (Escherichia coli [3]) | MIC (Escherichia coli [4]) | MIC (Escherichia coli [5]) | MIC (Pseudomonas aeruginosa [6]) | MIC (Pseudomonas aeruginosa [7]) | MIC (Escherichia coli [8]) | MIC (Klebsiella pneumoniae [9]) | MIC (Klebsiella pneumoniae [10]) | MIC (Pseudomonas aeruginosa [11]) |
| --- | --- | --- | --- | --- | --- | --- | --- | --- | --- | --- | --- |
| C[C@H]1COc2c(N3CCN(C)CC3)c(F)cc3c(=O)c(C(=O)O)cn1c23 [LEVOFLOXACIN ANHYDROUS] | 16 µg/mL (≈ 44.3 µM) | 128 µg/mL (≈ 354 µM) | ≤ 0.03 µg/mL | 8 µg/mL (≈ 22.1 µM) | 16 µg/mL (≈ 44.3 µM) |  |  |  |  |  |  |
